In ChEMBL document CHEMBL1201862, “PubChem BioAssay data set” (2004):
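Protocol summary: plate cells (96-well), add compound at 5 concentrations, incubate 48 h, interpolate endpoints linearly. GI50 is the concentration that inhibits growth by half.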 Calls of active or inactive are those of the source. No stated cut-off is given here; in the data, active = GI50 up to about 1.1 µM and inactive = higher.

Tests used:
Assay in all cases: inhibition of tumour cell growth, NCI panel, 48 h
[1] = test system: SN12C
[2] = test system: RPMI-8226
[3] = test system: HL-60
[4] = test system: M19-MEL
[5] = test system: 786-0
[6] = test system: EKVX
[7] = test system: A549
[8] = test system: SNB-78
[9] = test system: KM12
[10] = test system: UO-31
[11] = test system: HT-29
[12] = test system: XF498
[13] = test system: MDA-MB-231
[14] = test system: SF-268
[15] = test system: LXFL 529
[16] = test system: T47D
[17] = test system: OVCAR-8
[18] = test system: SF-539
[19] = test system: COLO 205
[20] = test system: MDA-MB-435

Measured: GI50

CC(=O)OC1CC[C@@]2(C)C(CC[C@]3(C)C2CC=C2[C@@H]4C(C)[C@H](C)CCC4(C)CCC23C)[C@@]1(C)C(=O)O (stereo not given in full)
inactive: [1] 21.5 µM | [2] 21.9 µM | [3] 27.4 µM | [4] 23.1 µM | [5] 23.2 µM | [6] 18 µM | [7] 17.5 µM | [8] 26.5 µM | [9] 21.2 µM | [10] 20.7 µM | [11] 21.2 µM | [12] 16.9 µM | [13] 20.9 µM | [14] 23.5 µM | [15] 17.3 µM | [16] 17.9 µM | [17] 23.6 µM | [18] 21.4 µM | [19] 20.4 µM | [20] 19.8 µM

C[C@]12CC[C@@H]3c4ccc(O)cc4CC[C@H]3[C@@H]1CC[C@@H]2OC(=O)CCC1CCCC1 [ESTRADIOL CYPIONATE]
inactive: [1] 16.7 µM | [2] 18.5 µM | [3] 17.8 µM | [4] 27.4 µM | [5] 16.3 µM | [6] 7.45 µM | [7] 17.8 µM | [8] 56.9 µM | [9] 26.8 µM | [10] 18.4 µM | [11] 17.9 µM | [12] 18.9 µM | [13] 17.5 µM | [14] 21.8 µM | [15] 17.5 µM | [16] 14.2 µM | [17] 16.7 µM | [18] 18.8 µM | [19] 19.1 µM | [20] 10 µM
